Reference: ChEMBL document CHEMBL1156394, “Low-density lipoprotein-antioxidant constituents of Saururus chinensis” (J Nat Prod, 2001)
pIC50: −log10 of the molar value.

Each compound was assayed on Plasma (assay: Antioxidant activity assessed as inhibition of LDL oxidation in human plasma).
Format: functional, cell-free

First: CC(C)(Sc1cc(C(C)(C)C)c(O)c(C(C)(C)C)c1)Sc1cc(C(C)(C)C)c(O)c(C(C)(C)C)c1 [PROBUCOL]
Second: C/C=C/c1ccc(O[C@@H](C)[C@@H](O)c2ccc(O)c(OC)c2)c(OC)c1 [MACHILIN D]
The pIC50 of the first is 0.35 log units higher: 5.89 for the first, 5.54 for the second. The first is the more potent here.

For `C/C=C/c1ccc(O[C@@H](C)[C@@H](O)c2ccc(OC)c(OC)c2)c(OC)c1` [VIROLIN], the pIC50 was 5.37.
